Measurements published in patent US5674854A, “Inclusion complex of beta-cyclodextrin and diclofenac, its preparation and use” (Farmarc Nederland BV, priority 1993, dated 1997).

Assays:
[1] = physchem; assay type: physicochemical; details: identical conditions (deionized water, room temperature, 24 hours); read-out: equilibrium solubility of diclofenac sodium in the absence of beta cyclodextrin
Protocol: The vial is sealed and placed in a laboratory shaker. The mixture is allowed to shake for 5 minutes and then equilibrated for 24 hours. The supernatant is filtered through a 0,22 micron filter and analyzed for diclofenac concentration by HPLC.

[2] = phase solubility analysis; cited from earlier work

| Compound | solubility thermodynamic at 24 h [1] [µg/mL] | effect of beta-cyclodextrin and hydroxyalkyl ether derivatives on aqueous solubility of diclofenac [2] |
| --- | --- | --- |
| O=C(O)Cc1ccccc1Nc1c(Cl)cccc1Cl [diclofenac sodium] | 5000 | – |
| O=C(O)Cc1ccccc1Nc1c(Cl)cccc1Cl [diclofenac, 2-[(2,6-dichlorophenyl)amino]benzeneacetic acid] | – | increase the aqueous solubility |
